In patent publication US20200405687A1, “METHODS FOR THE TREATMENT OF INFECTION” (Corbus Pharmaceuticals, Inc., priority 2016, published 2020):
“Also recorded” adds a separate entry of the source.

How the values were obtained:
Pseudomonas aeruginosa = Pseudomonas aeruginosa agarose bead lung infection in Cftr KO and WT mice (Example 2); type: in vivo
Experimental: A limited number of both WT (C57BL/6J, n=5) and Cftr KO (congenic-homologous, DelF508-FABP gut corrected animals, n=5) were evaluated for safety, toxicity, and efficacy upon oral dosing of 5 mg/kg ajulemic acid BID. As controls, PA infected WT C57BL/6J and Cftr KO mice were given the 2% methylcellulose vehicle. Cftr KO and WT animals in this study were followed daily for clinical score and weights for 10 days. At Day 10, animals were euthanized and evaluated for bacteria load (colony forming units, cfus), total bronchoalveolar lavage (BAL) white blood cell counts (WBCs), and differential cell counts.
Mice were inoculated with Pseudomonas aeruginosa (PA) agaroses beads in the lungs and then treated twice daily with oral doses of ajulemic acid at 1 mg/kg and 5 mg/kg. Ajulemic acid was then administered by gavage at 1 mg/kg or 5 mg/kg dose BID in 2% methylcellulose for 10 days starting 24 hours after establishing chronic Pseudomonas aeruginosa (PA) infection. The study included 4 groups:
1) C57BL/6J+vehicle (WT DIL, n=5),
2) C57BL/6J+5 mg/kg ajulemic acid BID (WT AJ, n=5),
3) Cftr KO+vehicle (CF DIL, n=5), and
4) Cftr KO+5 mg/kg ajulemic acid BID (CF AJ, n=5),
and all animals were chronically infected with Pseudomonas aeruginosa using a standard agarose bead model.

[1] = tested on: UV-killed Escherichia coli; assay: Skin challenge (blister) model, intradermal UV-killed E. coli in healthy volunteers (Example 3); type: in vivo, humans; settings: for infiltration of neutrophils at the site of inflammation (blister exudate): 4 h and 10 h
Experimental: The ability of administration of a pharmaceutical composition including ajulemic acid to treat infection was assayed in a skin challenge model. A self-resolving acute inflammatory response was triggered by the intradermal injection of UV-killed Escherichia coli into the forearm of healthy volunteers. […] This study was performed to determine whether ajulemic acid promotes the resolution of infection at the site of inflammation, thereby treating that infection.
Cells and exudates were harvested at several time points following injection of UV-killed E. coli by applying negative pressure over the inflamed site.
The study included four experimental groups (n=10 in each group): • 1) Placebo, twice daily for four days • 2) Ajulemic acid, 5 mg, twice daily for four days • 3) Ajulemic acid, 20 mg, twice daily for four days • 4) Prednisone, 15 mg daily for four days
The volunteer (healthy males, 18-50 years) were randomly allocated to one of the above three groups and orally administered the test drug for four consecutive days. On the morning of the fourth day (after intake of the first dose), experimental acute inflammation was elicited by infection with UV-killed E. coli. The drug and the placebo were provided as capsules.
UV killed E. coli (Strain: NCTC 10418, Source: Public Health England, UK) were prepared as follows. E. coli described were grown overnight in Luria Broth (Sigma) at 37° C. The next morning, the bacteria were washed twice in sterile PBS (2500 g, 20 min, 4° C.) and resuspended in a sterile petri dish.
Bacteria were then killed by exposure to an ultraviolet light (UV) source (302 nm, ChemiDoc, trans-UV mode; Bio-Rad laboratories) for 60 min and then washed again in sterile saline. Bacterial counts were determined by optical density (OD600=0.365 equates to […] E. coli/ml). UVKEc were resuspended in a volume of sterile saline to obtain the count of 1.5×10^8/ml, aliquoted into sterile eppendorf tubes and then frozen at −80° C. until used for injections.
After disinfecting and shaving the skin, 1.5×10^7 UVKEc in 100 μl saline were injected intradermally into a marked site on the volar aspect of each forearm. To characterize the treatment of infection using ajulemic acid, each forearm was allotted to one of the predefined time-points namely 4, 8, 14, 24, 48 or 72 hours (h). Thus the effects of intradermal injection of UVKEc were allowed to progress for the duration of the time-point after which a suction blister was raised over the marked injection site, and then aspirated immediately. In summary, volunteer had two injection sites, one on each forearm, and contributed to two time points. On a separate group of volunteers, blister was raised on the naïve skin and treated as the baseline time point. Study time-points were discussed with volunteers before consenting.
Laser Doppler Imager (moor LDI-HIR, Moor Instruments Ltd, Axminster, Devon, UK) was used to quantify the blood flow at the site of infection. At predefined time points after injection of UVKEc, the forearm was placed under the scanner at a fixed distance to scan a fixed area. The scanner emits a laser beam, a portion of which is scattered by red blood cells present at the inflamed area. The scattering causes a change in frequency of the reflected light which is then detected by a photo detector. The velocity and concentration of red blood cells at the site directly affect the Doppler frequency shifts and account for the signal strength measured in arbitrary perfusion units. […] The total blood flow (measured in perfusion units) was calculated as product of number of valid pixels above background signal (Cut-off=300 perfusion units) and the mean blood flow signal over the valid pixels 11, 12.
To obtain the exudate from the site of infection, a 10 mm diameter suction blister was induced directly over the site of injection. […]

Compound: CCCCCCC(C)(C)c1cc(O)c2c(c1)OC(C)(C)[C@@H]1CC=C(C(=O)O)C[C@@H]21 [ajulemic acid, (6aR,10aR)-1-hydroxy-6,6-dimethyl-3-(2-methyl-2-octanyl)-6a,7,10,10a-tetrahydro-6H-benzo[c]chromene-9-carboxylic acid]
- Survival Rate (Day 10) (Pseudomonas aeruginosa; Cftr KO (CF) mice, 5 mg/kg BID oral, n=5, vehicle 3/5, 5 mg/kg): 5/5
- BAL WBC counts (Pseudomonas aeruginosa; Cftr KO mice, 5 mg/kg BID): decreased BAL WBC counts
- number of alveolar macrophages (Pseudomonas aeruginosa; Cftr KO mice, 5 mg/kg BID): increase the number of alveolar macrophages
- weight loss (Pseudomonas aeruginosa; Cftr KO mice, 5 mg/kg BID, P<0.01): decreased weight loss
- numbers of neutrophils (Pseudomonas aeruginosa; Cftr KO mice, 5 mg/kg BID, P<0.05): decreased numbers of neutrophils
- ability to resolve pulmonary infection as assessed by lung CFUs (Pseudomonas aeruginosa; Cftr KO mice, 5 mg/kg BID, Pvariance=0.002): improved the ability of the animals to resolve pulmonary infection
- pro-resolving macrophages during the resolution arm of innate immune response ([1]; 5 mg or 20 mg): increases pro-resolving macrophages
- IL-8 (pro-inflammatory cytokine) levels in inflammatory exudate ([1]; 5 mg or 20 mg BID, 4 hr and 10 hr, multiplex ELISA, listed as Ajulemic acid): reduce
- time course of neutrophil infiltration at the site of inflammation ([1]; 20 mg ajulemic acid group, relative to placebo): neutrophil infiltration is decreased relative to placebo
- rise in C-reactive protein (CRP) levels in serum ([1]; after UVKEc triggered acute inflammation, multiple time points): does not appear to inhibit the rise in C-reactive protein levels
- infiltration of neutrophils at the site of inflammation (blister exudate) ([1]; ajulemic acid 5 mg or 20 mg BID, prednisone 15 mg daily, relative to placebo): decrease in the infiltration of neutrophils
- infiltration of neutrophils at the site of inflammation (blister exudate) ([1]; ajulemic acid 5 mg or 20 mg BID, prednisone 15 mg daily, relative to placebo, listed as Ajulemic acid): reduce
- levels of endotoxin at the site of injection ([1]; ajulemic acid 5 mg or 20 mg BID, prednisone 15 mg daily, 4 hr and 10 hr, limulus amoebocyte lysate test): decreased levels of endotoxin; also recorded: reduces levels of endotoxin
- local vascular blood flow at injection site (laser Doppler) ([1]; at least 20 mg AJA BID, four days): increase in local blood flow
- vasodilation ([1]; summary of blister model results): reduce vasodilation
